Where two headings read alike, the source gives them in different places.
Test system: 280 human cancer cell lines
Test: OncoPanel cell proliferation assay (10-day)
Assay type: cell-based
Details: Homo sapiens; for EC50: read-out: Cell Count EC50; for IC50: read-out: Cell Count IC50
[1] = SW872, SW872, Soft Tissue - Sarcoma
[2] = SW 954, SW954, Female GU - Vulva
[3] = SW982, SW982, Soft Tissue - Sarcoma
[4] = SW1353, SW1353, Soft Tissue - Osteosarcoma
[5] = TE 125.T, Soft Tissue - Sarcoma
[6] = TE 381.T, Soft Tissue - Sarcoma
[7] = U2OS, Soft Tissue - Osteosarcoma
[8] = U-118-MG, U-118 MG, CNS - Glioma
[9] = VA-ES-BJ, Soft Tissue - Sarcoma
[10] = WM 266-4, WM-266-4, Skin (Melanoma)
[11] = NCI-H295R, Endocrine - Adrenal gland

CC(C)=CCC[C@H](CO)[C@@H]1CC[C@@H](C)c2c1cc(C)c(O)c2O [Compound 1, 7,8,18-trihydroxyserrulat-14-ene]
EC50 [1]: 960 nM
GI50 (SW872, SW872, Soft Tissue - Sarcoma, read-out: Cell Count GI50): 960 nM
IC50 [1]: 960 nM
EC50 (SW900, SW900, Lung - SCLC): 3290 nM
GI50 (SW900, SW900, Lung - SCLC, read-out: Cell Count GI50): 3240 nM
IC50 (SW900, SW900, Lung - SCLC): 3330 nM
EC50 (SW948, SW948, Colon): 2210 nM
GI50 (SW948, SW948, Colon, read-out: Cell Count GI50): 2200 nM
IC50 (SW948, SW948, Colon): 2210 nM
EC50 [2]: 7630 nM
GI50 (SW 954, SW954, Female GU - Vulva, read-out: Cell Count GI50): 7600 nM
IC50 [2]: 7630 nM
EC50 [3]: 1070 nM
GI50 (SW982, SW982, Soft Tissue - Sarcoma, read-out: Cell Count GI50): 1070 nM
IC50 [3]: 1070 nM
EC50 (SW1088, SW1088, CNS - Glioma): 2440 nM
GI50 (SW1088, SW1088, CNS - Glioma, read-out: Cell Count GI50): 2430 nM
IC50 (SW1088, SW1088, CNS - Glioma): 2440 nM
EC50 [4]: 1000 nM
GI50 (SW1353, SW1353, Soft Tissue - Osteosarcoma, read-out: Cell Count GI50): 990 nM
IC50 [4]: 1000 nM
EC50 (SW1417, SW1417, Colon): 3150 nM
GI50 (SW1417, SW1417, Colon, read-out: Cell Count GI50): 3070 nM
IC50 (SW1417, SW1417, Colon): 3150 nM
EC50 (SW1463, SW1463, Colon): 3730 nM
GI50 (SW1463, SW1463, Colon, read-out: Cell Count GI50): 3710 nM
IC50 (SW1463, SW1463, Colon): 3750 nM
EC50 (SW1783, SW1783, CNS - Glioma): 3190 nM
GI50 (SW1783, SW1783, CNS - Glioma, read-out: Cell Count GI50): 3090 nM
IC50 (SW1783, SW1783, CNS - Glioma): 3190 nM
EC50 (SW-403, SW403, Colon): 8090 nM
GI50 (SW-403, SW403, Colon, read-out: Cell Count GI50): 7890 nM
IC50 (SW-403, SW403, Colon): 8110 nM
EC50 (SW-620, SW620, Colon): 1480 nM
GI50 (SW-620, SW620, Colon, read-out: Cell Count GI50): 1480 nM
IC50 (SW-620, SW620, Colon): 1480 nM
EC50 (SiHa, Female GU - Cervix): 5220 nM
GI50 (SiHa, Female GU - Cervix, read-out: Cell Count GI50): 5170 nM
IC50 (SiHa, Female GU - Cervix): 5230 nM
EC50 (T24, Bladder): 1440 nM
GI50 (T24, Bladder, read-out: Cell Count GI50): 1440 nM
IC50 (T24, Bladder): 1440 nM
GI50 (T47D, Breast, read-out: Cell Count GI50): 4280 nM
GI50 (T98G, CNS - Glioma, read-out: Cell Count GI50): 2050 nM
EC50 (TCC-SUP, TCCSUP, Bladder): 1750 nM
GI50 (TCC-SUP, TCCSUP, Bladder, read-out: Cell Count GI50): 1720 nM
IC50 (TCC-SUP, TCCSUP, Bladder): 1750 nM
EC50 [5]: 6470 nM
GI50 (TE 125.T, Soft Tissue - Sarcoma, read-out: Cell Count GI50): 1480 nM
IC50 [5]: 9210 nM
EC50 [6]: 1620 nM
GI50 (TE 381.T, Soft Tissue - Sarcoma, read-out: Cell Count GI50): 1590 nM
IC50 [6]: 1620 nM
EC50 (TF-1, Leukemia): 2110 nM
GI50 (TF-1, Leukemia, read-out: Cell Count GI50): 1980 nM
IC50 (TF-1, Leukemia): 2110 nM
EC50 (THP-1, Thp1, Leukemia): 1380 nM
GI50 (THP-1, Thp1, Leukemia, read-out: Cell Count GI50): 1340 nM
IC50 (THP-1, Thp1, Leukemia): 1380 nM
EC50 (TUR, Lymphoma): 5090 nM
GI50 (TUR, Lymphoma, read-out: Cell Count GI50): 5080 nM
IC50 (TUR, Lymphoma): 5090 nM
EC50 [7]: 1660 nM
GI50 (U2OS, Soft Tissue - Osteosarcoma, read-out: Cell Count GI50): 1650 nM
IC50 [7]: 1660 nM
EC50 (U138-MG, U-138MG, CNS - Glioma): 6290 nM
GI50 (U138-MG, U-138MG, CNS - Glioma, read-out: Cell Count GI50): 6150 nM
IC50 (U138-MG, U-138MG, CNS - Glioma): 6330 nM
EC50 (U266B1, Myeloma): 3220 nM
GI50 (U266B1, Myeloma, read-out: Cell Count GI50): 3080 nM
IC50 (U266B1, Myeloma): 3220 nM
EC50 (U-87 MG, CNS - Glioma): 2120 nM
GI50 (U-87 MG, CNS - Glioma, read-out: Cell Count GI50): 2040 nM
IC50 (U-87 MG, CNS - Glioma): 2120 nM
EC50 [8]: 4560 nM
GI50 (U-118-MG, U-118 MG, CNS - Glioma, read-out: Cell Count GI50): 4490 nM
IC50 [8]: 4580 nM
EC50 (UMUC3, UM-UC-3, Bladder): 1850 nM
GI50 (UMUC3, UM-UC-3, Bladder, read-out: Cell Count GI50): 1840 nM
IC50 (UMUC3, UM-UC-3, Bladder): 1850 nM
EC50 [9]: 3670 nM
GI50 (VA-ES-BJ, Soft Tissue - Sarcoma, read-out: Cell Count GI50): 3550 nM
IC50 [9]: 3670 nM
EC50 [10]: 1150 nM
GI50 (WM 266-4, WM-266-4, Skin (Melanoma), read-out: Cell Count GI50): 1140 nM
IC50 [10]: 1150 nM
EC50 (WiDr, Colon): 2320 nM
GI50 (WiDr, Colon, read-out: Cell Count GI50): 2310 nM
IC50 (WiDr, Colon): 2320 nM
EC50 (Y79, Eye): 5600 nM
GI50 (Y79, Eye, read-out: Cell Count GI50): 5330 nM
IC50 (Y79, Eye): 5600 nM
EC50 (YAPC, Pancreas): 1910 nM
GI50 (YAPC, Pancreas, read-out: Cell Count GI50): 1900 nM
IC50 (YAPC, Pancreas): 1910 nM
EC50 [11]: 14700 nM
IC50 [11]: 14700 nM
EC50 (T47D, Breast): 4630 nM
IC50 (T47D, Breast): 4630 nM
EC50 (T98G, CNS - Glioma): 2050 nM
IC50 (T98G, CNS - Glioma): 2050 nM
GI50 (read-out: GI50): 400 to 1000 nM
